Source: paper PMC6412019, “Discovery of NV-5138, the first selective Brain mTORC1 activator” (Scientific Reports, 2019)

Legend:
[1] = target: T1, Sestrin2/GATOR2 interaction (Homo sapiens, UniProt P58004); assay: Cell-free Sesn2/WDR24 (GATOR2) interaction assay on immunoprecipitates; type: biochemical; conditions: added to immunoprecipitated complexes from amino acid-starved cells for 10 min
T1 construct: expressed in transfected cells; host or cells: HEK-293T stably expressing Flag-WDR24; Sestrin2 and the other GATOR2 subunits endogenous
T1 sequence (P58004 1-480): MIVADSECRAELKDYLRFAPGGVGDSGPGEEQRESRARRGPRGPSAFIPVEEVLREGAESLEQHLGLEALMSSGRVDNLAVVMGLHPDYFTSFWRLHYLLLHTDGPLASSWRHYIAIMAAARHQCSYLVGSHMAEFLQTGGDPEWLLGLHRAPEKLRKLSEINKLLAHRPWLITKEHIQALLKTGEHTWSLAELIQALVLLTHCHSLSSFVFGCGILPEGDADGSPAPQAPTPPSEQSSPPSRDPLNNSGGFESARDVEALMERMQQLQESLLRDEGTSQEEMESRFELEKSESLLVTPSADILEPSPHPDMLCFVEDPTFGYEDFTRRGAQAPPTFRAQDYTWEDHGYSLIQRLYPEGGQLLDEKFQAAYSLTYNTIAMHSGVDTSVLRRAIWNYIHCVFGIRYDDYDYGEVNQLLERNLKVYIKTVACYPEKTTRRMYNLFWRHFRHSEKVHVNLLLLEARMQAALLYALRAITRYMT
Experimental: Expression of flag-WDR24 allows for immunoprecipitation of the Sestrin2/GATOR2 complex from amino acid-starved cells with an anti-flag antibody. […] Finally, to determine whether Sestrins and the GATOR pathway are required for NV-5138 activity, HEK-293T cells null for all three Sestrin isoforms or the GATOR1 component Nprl3 were obtained.
Cell lysates were prepared as previously described. Lysates were cleared by centrifugation at 13,200 rpm at 4 °C for 8 min. For anti-FLAG IPs, the FLAG-M2 affinity gel was added to approximately 2 mg of lysates and incubated with rotation for 3 h at 4 °C. Following IP, the beads were washed one time with Triton wash buffer containing 500 mM NaCl. […] After compound incubation, IPs were collected by centrifugation. Immunoprecipitated proteins were denatured and, resolved by SDS-PAGE. Membranes were imaged using the LI-COR imaging system. Reagents and antibodies used are listed in Supplementary Information.

[2] = system: NMDA receptors expressed in Xenopus laevis oocytes; assay: Two electrode voltage-clamp electrophysiology of NMDA receptors in oocytes; type: cell-based; conditions: 300 µM final concentration; data not shown
Experimental: While mTORC1 activation by NV-5138 appears dependent upon an intact Sestrins/GATOR2 pathway and not upon protein incorporation or transamination by BCAT, NV-5138 was tested for off-target activity in the Eurofins/Cerep panel of over 100 potential targets. The selectivity panel included AMPA, kainate and NMDA receptor isoforms (Supplementary Table 2a–c). […] As observed in the Eurofins/Cerep panel, there was no effect of NV-5138 at 300 µM final concentration (data not shown).

[3] = Pharmacokinetic analysis in rats; type: in vivo, rat
Experimental: To determine oral bioavailability, male SD rats were dosed I.V at 1 mg/kg and PO at 5 mg/kg with NV-5138 in 0.5% MC/0. 1% Tween80 (n = 3 per time point per group). Rats were fasted overnight for PO group and were given free access to food and water for IV group. After dosing, tail-vein blood was collected at the indicated time points into K2EDTA tubes and centrifuged at 2,000 g for 5 min to collect plasma. To measure levels of NV-5138 in the brain and plasma, rats were dosed PO at 160 mg/kg (n = 5), sacrificed 1 h after dosing via decapitation and trunk blood and one hemisphere of the brain was collected. Plasma was combined with acetonitrile containing pregabalin as an internal standard and centrifuged, brain and heart samples were homogenized directly into acetonitrile. Levels of NV-5138 were quantified via LC-MS/MS. WinNonlin V 6.2 statistics software (Pharsight Corporation, California, USA) was used to generate pharmacokinetics parameters using non-compartmental model.

bioavailability ([3]; male, SD, rat, plasma, oral, 5 mg/kg, male SD rats, IV 1 mg/kg and PO 5 mg/kg): 100%
half-life ([3]; male, SD, rat, plasma, other: intravenous and oral, rats, intravenous and oral dosing, read-out: elimination half-life in plasma (converted)): ~3 h
SMILES: CC(C)(C[C@H](N)C(=O)O)C(F)F [NV-5138, (S)-2-amino-5,5-difluoro-4,4-dimethylpentanoic acid]
disruption of Sestrin2/GATOR2 interaction, cell-free [1]: rapidly disrupts the Sestrin2/GATOR2 interaction in a dose-dependent manner
functional inhibition of maximally-activated NMDA receptors [2]: no effect
brain versus plasma exposure ([3]; rats, 160 mg/kg PO, 160 mg/kg): brain and plasma concentrations of NV-5138 are equal
